Measurements: publication PMC6149849, “Cymantrenyl-Nucleobases: Synthesis, Anticancer, Antitrypanosomal and Antimicrobial Activity Studies” (Molecules : A Journal of Synthetic Chemistry and Natural …, 2017)
Where two headings read alike, the source gives them in different places.

How the values were obtained:
[1] = test system: SKOV-3 cells; test: Apoptotic/necrotic cell death, Hoechst 33258/propidium iodide staining, fluorescence microscopy; format: cell-based, human; conditions: for increase of apoptotic cells compared to untreated control cells: SKOV-3, 24 h treatment with IC50 concentrations, post-treatment 24 and 48 h; for apoptotic cell fraction predominantly increased: SKOV-3, IC50 concentrations
Description: To determine the mode of cell death that was triggered by cymantrene derivatives, appropriately stained SKOV-3 cells were evaluated for morphological changes using fluorescence microscopy. For evaluation of apoptosis and autophagy, cells were stained with Hoechst 33258/propidium iodide to distinguish between live, apoptotic and necrotic cells and reveal condensed chromatin and apoptotic bodies (a hallmark of apoptosis), and with acridine orange to detect the development of acidic vesicular organelles (AVOs—a hallmark of autophagy).
One day prior to the experiments, cells were seeded at the appropriate density into 35 mm diameter dishes. […] At the end of incubation, the medium was aspirated, the cell monolayer was washed twice with pre-warmed PBS, and fresh medium was added. The cells were cultured in drug-free medium for an additional 24 or 48 h to enable them to recover after the exposure to the compounds and to repair any induced damages.
Quantitative analysis of morphological changes that are associated with apoptosis, necrosis, and autophagy were assessed using a fluorescence microscope (Olympus IX70, Tokyo, Japan) at 400× magnification, as described elsewhere. At the indicated time points, cells were washed with PBS, trypsinized, and centrifuged at 1000 rpm (fixed angle rotor, 72× g) for 5 min at 37 °C. The supernatant was removed and the cell pellet (100 µL) was transferred to the Eppendorf tube, mixed with Ho33258 (2 µL, 0.13 mM) and PI (2 µL, 0.23 mM), and incubated for 5 min in the dark at room temperature. At least 300 stained cells were counted in triplicate in each of the three independent experiments. Cells were classified as live, apoptotic, or necrotic on the basis of their morphological and staining characteristics, and each fraction was related to the total cell number.

[2] = test system: MCF-7 (hormone-responsive breast adenocarcinoma); test: MTT cytotoxicity assay, MCF-7; format: cell-based, human
Description: (§1) Anticancer activity of cymantrenes was determined using a panel of human cancer cell lines that were derived from solid tumors. […] The inhibitory effect of cymantrene derivatives on cell proliferation and growth was determined based on survival curves and was expressed as IC50 values (concentration required to achieve a 50% decrease in cell viability when compared to the viability of untreated control cells) calculated using GraphPad Prism 4.02 software for Windows (GraphPad Software, San Diego, CA, USA). Cell viability was determined by the MTT microplate spectrophotometric cytotoxicity test.
(§2) Cells were grown as a monolayer in DMEM growth medium, supplemented with 10% FBS, penicillin (10 U/mL) and streptomycin (50 μg/mL), under standard conditions (37 °C, 5% CO2 and 95% air, 100% humidity) and periodically checked for Mycoplasma contamination.
(§3) The cytotoxicity of cymantrene derivatives was evaluated by the MTT microplate methods as described elsewhere [67] by incubating the cells with increasing concentrations of tested compounds for 24 h. Briefly, 0.1 mL of logarithmically growing cells were seeded in a 96-well microplate (5 × 10^4 cells/well) a day before the experiments and after 24 h of culture, tested compounds, dissolved in DMSO, and diluted in culture medium, were added. […] After further incubation for 24 h, the medium was replaced with fresh medium and the cells were allowed to grow for additional 48 h. Then, the medium was aspirated and 0.05 mL of MTT (final concentration of 5 mg/mL medium) added to each well, and the cells were incubated for further 4 h. The absorbance of the product, resulting from the MTT reduction, was read with a microplate reader at 545 nm. The percentage of viable cells was calculated by comparing the absorbance of treated cells with that of the untreated control cells (taken as 100%). The IC50 concentration of each compound was calculated from the cell survival curves using GraphPad Prism 4.02 software for Windows (GraphPad Software, San Diego, CA, USA).

[3] = test system: MDA-MB-231 (triple negative breast adenocarcinoma); test: MTT cytotoxicity assay, MDA-MB-231; format: cell-based, human
Description: as §1, §2, §3

[4] = test system: SKOV-3 cells; test: Intracellular ROS, H2DCF-DA fluorescent probe; format: cell-based, human; conditions: SKOV-3, 0.5 × IC50, IC50, 2 × IC50
Source text: Oxidative stress is a part of the cytotoxic activity of many anticancer agents and the production of reactive oxygen species (ROS) is considered as one of the main molecular mechanisms accompanying chemotherapy, radiotherapy, and photodynamic therapy. Since ROS can act as both oxidants and antioxidants, depending on the conditions, pro- and anti-oxidant therapies have been proposed for the treatment of cancer. So far, both ROS scavenging and ROS boosting anticancer therapies have shown promising results in vitro and in vivo [48]. Using an appropriate fluorescence probe, we measured the amount of ROS in cancer cells that were treated with cymantrene derivatives. […] The greatest increase in ROS was observed after […], with the highest concentration of cymantrene conjugates employed (2 × IC50) (Figure 8). […] As compounds 1, 3, 5, and C were effective in the production ROS, as well as in the induction of apoptosis and autophagy, these processes might contribute together to the cytotoxic action of the molecules.
The intracellular ROS were measured with the oxidation-sensitive fluorescent probes 2′,7′-dichlorodihydrofluorescein diacetate (H2DCF-DA) (Sigma-Aldrich, St. Louis, MO, USA), as described elsewhere. The cell-permeant non-fluorescent dye H2DCF-DA is a reduced form of fluorescein that inside the cell, upon cleavage of the acetate groups by intracellular esterases and oxidation by ROS, is converted into the highly fluorescent product 2′,7′-dichlorofluorescein (DCF) (λex/λem: 498/525 nm). For the assay, 2 × 10^4 cells were seeded into wells of black flat-bottom 96-well microplates a day before the experiment. The next day, test compounds were added at concentrations of 0.5 × IC50, 1 × IC50, and 2 × IC50. […] After 24 h incubation, medium was removed, cell monolayers were washed twice with HBSS and 5 µM H2DCF-DA, dissolved in HBSS, was added to each well. The cells were incubated with the fluorescent probe for 30 min in the dark at 37 °C, and then the fluorescence of produced DCF was monitored over a time period of 0–3 h at 15-min intervals with a microplate reader.

[5] = test system: human myeloid leukemia HL-60 cells; test: in vitro
Description: All of the cultures were maintained at 37 °C in a humidified atmosphere containing 5% of CO2. Toxicity assays were performed, as previously described, with some modifications. In brief, trypanosomes and HL-60 cells were seeded at an initial cell density of 10^4/mL and 5 × 10^4/mL, respectively, in 96-well plates in a final volume of 200 μL culture medium containing various concentrations of test compounds dissolved in 100% DMSO. […] The controls contained DMSO alone. In all of the experiments, the final DMSO concentration was 0.9%. After 24 h incubation, 20 µL of a 0.5 mM resazurin solution prepared in PBS was added and the cultures were incubated for a further 48 h. Resazurin is a vital dye that, when being reduced by living cells, changes its colour from blue to pink. Thus, by measuring absorbance, the proliferation of cells can be easily determined. The change in absorbance was read with a microplate reader using a test wavelength of 570 nm and a reference wavelength of 630 nm. GI50 values were calculated by linear interpolation according to the method described by Huber and Koella. MIC values were determined microscopically.

[6] = test system: MCF-7/DX (estrogen-responsive breast adenocarcinoma resistant to doxorubicin); test: cells; format: cell-based, human
Description: The inhibitory effect of cymantrene derivatives on cell proliferation and growth was determined based on survival curves and was expressed as IC50 values (concentration required to achieve a 50% decrease in cell viability when compared to the viability of untreated control cells) calculated using GraphPad Prism 4.02 software for Windows (GraphPad Software, San Diego, CA, USA). Cell viability was determined by the MTT microplate spectrophotometric cytotoxicity test.
Anticancer activity of cymantrene derivetives were determined on the basis of their cytotoxic effects on a panel of human cancer cells, as derived from different types of solid tumors: estrogen responsive breast adenocarcinoma (MCF-7), triple negative breast adenocarcinoma (MDA-MB-231), ovarian adenocarcinoma (SKOV-3), non-small cell lung carcinoma (A549), hepatocellular carcinoma (HepG2), and glioblastoma (U-87 MG).
as §2, §3

[7] = Determination of log Po/w by chromatographic (RP-HPLC) method, Soczewiński–Wachtmeister relationship; conditions: water/methanol, C18, 20 °C
Description: In this study, a chromatographic method and the Soczewiński–Wachtmeister relationship were used in order to determine the lipophilicity of the compounds [38, 39, 40, 41]
For the determination of log Po/w values, the newly synthesized compounds were analyzed by an Agilent 1200 system (Agilent Technologies, Santa Clara, CA, USA) equipped with a Zorbax Eclipse XDB column (C18, 250 × 4.6 mm, Agilent Technologies) and controlled by the software ChemStation Data Analysis. The separation was isocratic, and water/methanol (HPLC gradient grade, Sigma-Aldrich, St. Louis, MO, USA) mixtures containing 0.50, 0.55, 0.60, 0.65, 0.70, 0.75, 0.80, 0.85, 0.90 and 0.95 volume fractions of organic modifier were used as the mobile phase. The flow rate was 1.0 mL/min for the 7 and 2 and 0.8 mL/min for other compounds. The chromatographic peaks of test compounds were detected by UV absorbance at 230 nm. The column temperature was kept at 20 °C. The dead-time values were measured from the effluent peaks. All of the runs were performed in triplicate, and the resulting average values were used for the calculation of the retention factors.

[8] = concentration at which all cells were killed
[9] = read-out: HL-60 GI50, 50% growth inhibition
[10] = 24 h incubation, MTT, means ± SEM, read-out: cytotoxicity IC50, MCF-7
[11] = 24 h incubation, MTT, means ± SEM, read-out: cytotoxicity IC50, MDA-MB-231
[12] = 24 h incubation, MTT, means ± SEM, read-out: cytotoxicity IC50, MCF-7/DX

SMILES	increase of apoptotic cells compared to untreated control cells [1]	apoptotic cell fraction predominantly increased [1]	IC50 [2]	IC50 [3]	generated intracellular ROS [4]	GI50 [5]	HL-60 MIC [5]	IC50 [6]	HL-60 MIC [5, 8]	GI50 [5, 9]	IC50 [2, 10]	Log Po/w [7]	IC50 [3, 11]	IC50 [6, 12]	mitotic cell death ([1]; SKOV-3, morphology)
CCC(=O)[C]12[CH]3[CH]4[CH]5[CH]1[Mn]4532.[C-]#[O+].[C-]#[O+].[C-]#[O+] (stereo not shown) [Compound 7, propionylocymantrene]	9 fold	late-apoptotic cell fraction	> 150 µM	63 ± 1.32 µM											
O=C(CCn1cc(F)c(=O)[nH]c1=O)[C]12[CH]3[CH]4[CH]5[CH]1[Mn]4532.[C-]#[O+].[C-]#[O+].[C-]#[O+] (stereo not shown) [Compound 1]	6 fold		70.5 ± 2.52 µM	27.9 ± 1.11 µM	generated the largest amounts of ROS	33.1 ± 3.4 µM	100 µM	137 ± 3.41 µM							
Nc1ncnc2c1ncn2CCC(O)[C]12[CH]3[CH]4[CH]5[CH]1[Mn]45321[P](c2ccccc2)(c2ccccc2)CC[P]1(c1ccccc1)c1ccccc1.[C-]#[O+] (racemic) [Compound C]	9 fold	early apoptotic cells	104 ± 1.19 µM	43.1 ± 1.95 µM	generated the largest amounts of ROS										
COC(CCn1cnc2c(N(C)C)ncnc21)[C]12[CH]3[CH]4[CH]5[CH]1[Mn]4532.[C-]#[O+].[C-]#[O+].[C-]#[O+] (racemic) [Compound 6]	6 fold		111 ± 3.57 µM	> 150 µM		95.2 ± 44.4 µM	>100 µM								
COC(CCn1cc(F)c(=O)n(C)c1=O)[C]12[CH]3[CH]4[CH]5[CH]1[Mn]4532.[C-]#[O+].[C-]#[O+].[C-]#[O+] (racemic) [Compound 4]	only a three-fold increase		> 150 µM	> 150 µM		> 100 µM	>100 µM								
O=[C]=[Mn](=[C]=O)(=[C]=O)[CH]1C=CC=C1 [CymH, tricarbonyl(η^5-cyclopentadienyl)manganese, reference compound]									>100 µM	> 100 µM	86 ± 1.3 µM	3.5	68.6 ± 1.74 µM	144 ± 2.24 µM	
Nc1ncnc2c1ncn2CCC(O)[C]12[CH]3[CH]4[CH]5[CH]1[Mn]4532[P](c1ccccc1)(c1ccccc1)c1ccccc1.[C-]#[O+].[C-]#[O+] (racemic) [Compound 5]	9 fold	early apoptotic cells			generated the largest amounts of ROS				100 µM	28.7 ± 3 µM	102 ± 1.11 µM	4.8	56 ± 2.07 µM		
O=c1[nH]c(=O)n(CCC(O)[C]23[CH]4[CH]5[CH]6[CH]2[Mn]5643[P](c2ccccc2)(c2ccccc2)c2ccccc2)cc1F.[C-]#[O+].[C-]#[O+] (racemic) [Compound 3]	only a three-fold increase				generated the largest amounts of ROS				100 µM	30.6 ± 2.6 µM	57.8 ± 2.89 µM	5.2	35.7 ± 1.44 µM	39.9 ± 1.41 µM	induced extensive mitotic cell death
